In US6337087B1, “Aqueous pharmaceutical composition comprising an active ingredient which is highly insoluble in water” (Aziende Chimiche Riunite Angelini Francesco A.C.R.A.F. …, priority 1997, dated 2002) one finds solubility data, which are given here for one compound.

Values after ≈ are worked out from the molar mass of the structure shown.

A short description of the series: initial solubility of the active ingredient. The settings on record: active ingredient without liposomes, aqueous. The series is classed as physicochemical.

The term solubility denotes the dissolved amount per volume that the medium holds. A high value points to much dissolved substance. Compound `O=C(O)c1nn(Cc2ccc(Cl)cc2Cl)c2ccccc12` [lonidamine] returned a solubility of 3 µg/mL (≈ 9.34 µM).
